According to US20090118350A1, “Biomarkers for Identifying Efficacy of Tegaserod in Patients with Chronic Constipation” (priority 2005, published 2009):
Like-named read-outs stand apart in the source and are kept apart here.

What was measured:
[1] = tested on: patients with chronic constipation; test: Weekly diary assessments (satisfaction with bowel habits, bothersome constipation, abdominal bloating, abdominal pain, global constipation relief) after 12 weeks, ANCOVA; format: in vivo, human; details: for weekly diary assessments, outcome: 6-mg bid vs placebo, 12 weeks; for Bothersome abdominal bloating, LS Mean Value / Bothersome abdominal pain, LS Mean Value / Bothersome constipation, LS Mean Value / Global constipation relief, LS Mean Value / Satisfaction with bowel habit, LS Mean Value: 12-wk, tegaserod 6-mg bid, lower value = better response
Experimental: Clinical assessments. […] The primary efficacy endpoint evaluated was the increase of 1 or more CSBM/week over baseline after 4 weeks of treatment. A secondary endpoint evaluated in this genotyping study was RESP12, the increase of 1 of more CSBM/week over baseline after 12 weeks of treatment. Patients were classified as responders if they met these criteria and had completed at least 7 days of treatment. Additional secondary efficacy assessments were evaluated based on the weekly diary assessments, such as bothersome constipation, bothersome abdominal pain, and satisfaction with bowel habits at the end of the 12-week treatment period (using the baseline value as a co-variant for analysis). Additional secondary endpoints. In addition to the above assessments, 5 additional secondary efficacy endpoints were evaluated from the weekly diary assessments. These included the weekly changes in satisfaction with bowel habits, bothersome constipation, bothersome abdominal bloating, bothersome abdominal pain, and global constipation relief. TABLE 13 presents the results of analysis comparing the overall change in these parameters at the end of 12 weeks of treatment by treatment (tegaserod 6-mg bid vs. placebo) and whether they had 1 or more of the 12 “high responder” SNPs. An ANCOVA model was applied using the baseline value of these assessments as a quantitative co-variant.

[2] = tested on: patients with chronic constipation; test: Response by serotonin transporter (SLC6A4) promoter insertion/deletion genotype; format: in vivo, human; details: for OR: tegaserod vs placebo
Text: Two major classes of insertion/deletion polymorphisms have been characterized for the SLC6A4 gene, one in intron 2 and another in the promoter region. SLC6A4 is the serotonin transporter gene, also know as SERT or HTT. Camilleri and colleagues reported that SLC6A4 promoter insertion/deletion polymorphism was associated with colonic transit response following treatment with the serotonin 5-HT3 receptor antagonist alosetron. Camilleri M et al., Gastroenterology; 123 (2):425-32 (2002). […] The overall response rates for C16-C16 were 48% for tegaserod and 21% for placebo (OR=3.51, 95% CI: 1.67-7.41) compared to the C14-C14 homozygotes at 45% for tegaserod and 27% for placebo (OR=2.3, 95% CI: 0.93-5.69) and C14-C16 heterozygotes at 43% for tegaserod and 28% for placebo (OR=1.95; 95% CI: 1.12-3.41). Within a given treatment group, there was no statistically significant difference between response rates between the different genotypes.

[3] = tested on: chronic constipation patients; details: chronic constipation patients across North and South America; Johanson et al. 2004; cited from earlier work
[4] = tested on: healthy volunteers, patients with IBS-C, patients with chronic constipation; details: cited from earlier work

## [H]/N=C(/NCCCCC)N/N=C/c1c[nH]c2ccc(OC)cc12 [tegaserod, Tegaserod]
[1]; all patients combined
  weekly diary assessments, outcome: better outcome compared to placebo
[1]; individuals with 1 or more of the 12 SNPs, all 5 assessments
  weekly diary assessments, outcome: significantly greater responses to tegaserod than placebo
[1]; individuals with none of the 12 SNPs
  weekly diary assessments, outcome: no treatment difference
[1]; 0 of 12 SNPs
  Bothersome abdominal bloating, LS Mean Value: 2.18
  Bothersome abdominal pain, LS Mean Value: 1.90
  Bothersome constipation, LS Mean Value: 2.25
  Global constipation relief, LS Mean Value: 2.20
  Satisfaction with bowel habit, LS Mean Value: 2.48
[1]; >=1 of 12 SNPs
  Bothersome abdominal bloating, LS Mean Value: 2.00
  Bothersome abdominal pain, LS Mean Value: 1.77
  Bothersome constipation, LS Mean Value: 1.87
  Global constipation relief, LS Mean Value: 1.95
  Satisfaction with bowel habit, LS Mean Value: 2.17
[1]; All geno
  Bothersome abdominal bloating, LS Mean Value: 2.09
  Bothersome abdominal pain, LS Mean Value: 1.84
  Bothersome constipation, LS Mean Value: 2.07
  Global constipation relief, LS Mean Value: 2.08
  Satisfaction with bowel habit, LS Mean Value: 2.33
[2]; serotonin transporter promoter polymorphism C14-C14 homozygotes
  overall response rate: 45%
[2]; serotonin transporter promoter polymorphism C14-C16 heterozygotes
  overall response rate: 43%
[2]; serotonin transporter promoter polymorphism C16-C16 homozygotes
  overall response rate: 48%
[2]; C14-C14 homozygotes
  OR: 2.3
[2]; C14-C16 heterozygotes
  OR: 1.95
[2]; C16-C16 homozygotes
  OR: 3.51
[3]
  response rate: 43%
[4]; healthy volunteers (Degen et al. 2001)
  colonic transit time: significantly increase colonic transit time
[4]; patients with IBS-C (Prather et al. 2000)
  colonic transit time: significantly increase colonic transit time
[4]; patients with chronic constipation (Johanson et al. 2004)
  colonic transit time: significantly increase colonic transit time
